In this assay the target is T1, sodium-proton exchanger of subtype 3 (NHE3) (Homo sapiens, UniProt P48764).
T1 construct: expressed in transfected cells
T1 sequence (P48764 26-834): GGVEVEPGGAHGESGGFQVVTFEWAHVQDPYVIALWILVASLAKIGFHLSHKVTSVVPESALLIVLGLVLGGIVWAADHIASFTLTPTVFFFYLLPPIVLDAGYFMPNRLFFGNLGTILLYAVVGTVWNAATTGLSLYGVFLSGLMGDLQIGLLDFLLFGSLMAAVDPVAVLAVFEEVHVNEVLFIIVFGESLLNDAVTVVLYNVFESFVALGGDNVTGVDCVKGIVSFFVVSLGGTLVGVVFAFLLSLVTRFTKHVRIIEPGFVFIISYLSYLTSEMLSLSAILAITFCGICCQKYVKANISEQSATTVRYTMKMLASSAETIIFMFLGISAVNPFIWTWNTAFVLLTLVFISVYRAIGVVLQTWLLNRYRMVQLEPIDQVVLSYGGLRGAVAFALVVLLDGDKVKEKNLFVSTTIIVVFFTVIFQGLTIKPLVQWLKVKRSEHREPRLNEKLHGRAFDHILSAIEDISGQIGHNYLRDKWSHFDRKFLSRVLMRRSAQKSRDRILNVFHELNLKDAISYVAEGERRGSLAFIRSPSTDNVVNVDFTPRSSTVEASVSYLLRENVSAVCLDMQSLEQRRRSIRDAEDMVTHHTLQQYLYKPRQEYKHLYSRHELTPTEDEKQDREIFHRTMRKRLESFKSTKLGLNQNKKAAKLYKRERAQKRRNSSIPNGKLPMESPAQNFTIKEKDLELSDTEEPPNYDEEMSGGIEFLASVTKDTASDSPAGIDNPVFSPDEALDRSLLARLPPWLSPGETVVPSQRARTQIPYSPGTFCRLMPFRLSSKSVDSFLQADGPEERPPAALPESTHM
Description: Recovery of intracellular pH (pHi) after acidification in LAP1 cells stably expressing NHE3 (BCECF fluorescence, FLIPR). Type of assay: cell-based. Conditions: LAP1 cells stably expressing NHE3; pH recovery after acidification; range 1 is % inhibition at 10 μM; read-out: Activity range (inhibitory effect on NHE3).
Take `CS(=O)(=O)Nc1ccc(C(=O)O[C@H]2c3ccccc3C[C@@H]2N2CCCC2)c(Cl)c1` [Example 394, 2-chloro-4-methanesulfonylaminobenzoic acid (1S,2S)-2-pyrrolidin-1-ylindan-1-yl ester]: the IC50 lay in the range of 1000 to 10000 nM.
`N#Cc1ccc(O[C@H]2c3ccccc3CC[C@@H]2N2CCC[C@@H](N)C2)c(Cl)c1` (racemic) [Example 514, 4-[rac-trans-(1,2)-2-((R)-3-aminopiperidin-1-yl)-1,2,3,4-tetrahydronaphthalen-1-yloxy]-3-chlorobenzonitrile]: the IC50 was 1000 to 10000 nM.
For `CSc1ccc(O[C@H]2c3ccccc3CC[C@@H]2N2CCC[C@H](N)C2)cc1` (racemic) [Example 183, (S)-1-[rac-trans-(1,2)-1-(4-methylsulfanylphenoxy)-1,2,3,4-tetrahydronaphthalen-2-yl]piperidin-3-ylamine], the inhibition at 10 µM was 20 to 50%.
As to `Cc1nc2cc(O[C@@H]3c4ccccc4C[C@H]3N3C[C@H]4CNC[C@H]4C3)ccc2s1` (racemic) [Example 576, 5-[rac-trans-(1,2)-2-(hexahydropyrrolo[3,4-c]pyrrol-2-yl)indan-1-yloxy]-2-methylbenzothiazole], the IC50 is 1000 to 10000 nM.
Turning to `NC(=O)c1ccc(O[C@@H]2c3ccccc3C[C@H]2N2CCC(N)C2)cc1` (mixture of isomers) [Example 544, 4-[rac-trans-(1,2)-2-(3-aminopyrrolidin-1-yl)indan-1-yloxy]benzamide], the IC50 lay within 1000 to 10000 nM.
For `Cc1nnc(C(C)C)n1-c1ccc(O[C@H]2c3cc(Cl)cc(Cl)c3C[C@@H]2N2CC[C@@H](O)C2)cc1` [Example 715, (R)-1-{trans-(1S,2S)-4,6-Dichloro-1-[4-(3-isopropyl-5-methyl-[1,2,4]triazol-4-yl)-phenoxy]-indan-2-yl}-pyrrolidin-3-ol], the IC50 is less than 1000 nM.
With `CC(=O)Nc1cccc(OC2c3ccccc3CC2N2CCCC2)c1` (racemic) [Example 641, N-[3-(rac-trans-(1,2)-2-pyrrolidin-1-ylindan-1-yloxy)phenyl]acetamide], the IC50 was less than 1000 nM.
Take `CC(=O)Nc1cccc(O[C@H]2c3cc(F)cc(Cl)c3C[C@@H]2N2CCC[C@@H](N)C2)c1` (racemic) [Example 677, N-{3-[rac-trans-(1,2)-2-((R)-3-aminopiperidin-1-yl)-4-chloro-6-fluoroindan-1-yloxy]phenyl}acetamide]: the IC50 is less than 1000 nM.
For the compound `N[C@H]1CCCN([C@H]2CCc3ccccc3[C@@H]2Oc2ccc(N3C(=O)CCC3=O)cc2)C1` (racemic) [Example 328, 1-{4-[rac-trans-(1,2)-2-((S)-3-aminopiperidin-1-yl)-1,2,3,4-tetrahydronaphthalen-1-yloxy]phenyl}pyrrolidine-2,5-dione], the inhibition at 10 µM was in the range of 20 to 50%.
`CCn1c(C)nn(-c2ccc(O[C@H]3c4cc(Cl)cc(Cl)c4C[C@@H]3N3CC[C@@H](O)C3)cc2)c1=O` [Example 737, 2-{4-[trans-(1S,2S)-4,6-Dichloro-2-((R)-3-hydroxy-pyrrolidin-1-yl)-indan-1-yloxy]-phenyl}-4-ethyl-5-methyl-2,4-dihydro-[1,2,4]triazol-3-one]: the IC50 was 1000 to 10000 nM.
`N#Cc1ccc(O[C@@H]2c3ccccc3C[C@H]2N2C[C@H]3CNC[C@H]3C2)cc1F` (racemic) [Example 397, 2-fluoro-4-[rac-trans-(1,2)-2-(hexahydropyrrolo[3,4-c]pyrrol-2-yl)indan-1-yloxy]benzonitrile]: the IC50 lay within 1000 to 10000 nM.
Regarding `N#Cc1c(F)cccc1O[C@H]1c2ccccc2CC[C@@H]1N1CCC[C@H](N)C1` (racemic) [Example 372, 2-[rac-trans-(1,2)-2-((S)-3-aminopiperidin-1-yl)-1,2,3,4-tetrahydronaphthalen-1-yloxy]-6-fluorobenzonitrile], the inhibition at 10 µM is 20 to 50%.
For `COc1cc(O[C@H]2c3ccccc3CC[C@@H]2N2CCC[C@@H](N)C2)ccc1Br` (racemic) [Example 63, (R)-1-[rac-trans-(1,2)-1-(4-bromo-3-methoxyphenoxy)-1,2,3,4-tetrahydronaphthalen-2-yl]piperidin-3-ylamine], the inhibition at 10 µM lay within 20 to 50%.
With `CC(=O)Nc1cccc(O[C@H]2c3ccccc3C[C@@H]2N2CCC[C@@H](N(C)C)C2)c1` [Example 692, N-{3-[trans-(1S,2S)-2-((R)-3-dimethylaminopiperidin-1-yl)indan-1-yloxy]phenyl}acetamide], the IC50 was less than 1000 nM.
Consider `CS(=O)(=O)c1ccc(O[C@H]2c3cc(Cl)cc(Cl)c3C[C@@H]2N2CCCNCC2)cc1` (racemic) [Example 277, 1-[rac-trans-(1,2)-4,6-dichloro-1-(4-methanesulfonylphenoxy)indan-2-yl]-[1,4]diazepane], for which the IC50 is less than 1000 nM.
With `Cc1nnc(C)n1-c1ccc(O[C@H]2c3cc(Cl)cc(Cl)c3C[C@@H]2N2CC[C@H](O)C2)cc1` [Example 206, (S)-1-{trans-(1S,2S)-4,6-dichloro-1-[4-(3,5-dimethyl-[1,2,4]triazol-4-yl)phenoxy]indan-2-yl}pyrrolidin-3-ol], the IC50 is less than 1000 nM.
For `Cc1nnc(C)n1-c1ccc(O[C@H]2c3cc(Cl)ccc3C[C@@H]2N2CCCC2)cc1` [Example 502, 4-[4-(trans-(1S,2S)-6-chloro-2-pyrrolidin-1-ylindan-1-yloxy)phenyl]-3,5-dimethyl-4H-[1,2,4]triazole], the IC50 was less than 1000 nM.
Consider `CCCC1(N)CCCN([C@H]2Cc3c(Cl)cc(Cl)cc3[C@@H]2Oc2ccc(S(C)(=O)=O)cc2)C1` (stereo partly drawn) [Example 299, 1-[trans-(1S,2S)-4,6-dichloro-1-(4-methanesulfonylphenoxy)indan-2-yl]-3-propylpiperidin-3-ylamine], for which the IC50 was less than 1000 nM.
Turning to `Cc1ccc(O[C@H]2c3ccccc3CC[C@@H]2N2CCC[C@H](N)C2)cc1Cl` (racemic) [Example 161, (S)-1-[rac-trans-(1,2)-1-(3-chloro-4-methylphenoxy)-1,2,3,4-tetrahydronaphthalen-2-yl]piperidin-3-ylamine], the inhibition at 10 µM fell in the range of 20 to 50%.
In the case of `CC(=O)Nc1cccc(OC2c3ccccc3CC2N(C)C)c1` (racemic) [Example 638, N-[3-(rac-trans-(1,2)-2-dimethylaminoindan-1-yloxy)phenyl]acetamide], the IC50 was in the range of 1000 to 10000 nM.
For `CS(=O)(=O)c1ccc(O[C@@H]2c3ccccc3C[C@@H]2n2ccnc2)cc1` (racemic) [Example 261, 1-[rac-cis-(1,2)-1-(4-methanesulfonylphenoxy)indan-2-yl]-1H-imidazole], the inhibition at 10 µM was 20 to 50%.
`Cc1cc(O[C@H]2c3ccccc3CC[C@@H]2N2CCC[C@@H](N)C2)ccc1Cl` (racemic) [Example 65, (R)-1-[rac-trans-(1,2)-1-(4-chloro-3-methylphenoxy)-1,2,3,4-tetrahydronaphthalen-2-yl]piperidin-3-ylamine]: the inhibition at 10 µM lay in the range of 20 to 50%.
For the compound `Cc1cc(O[C@H]2c3cc(F)cc(Cl)c3C[C@@H]2N2CCC[C@@H](N)C2)ccc1S(=O)(=O)C(F)(F)F` (racemic) [Example 90, (R)-1-[rac-trans-(1,2)-4-chloro-6-fluoro-1-(3-methyl-4-trifluoromethanesulfonylphenoxy)indan-2-yl]piperidin-3-ylamine], the IC50 lay in the range of 1000 to 10000 nM.
As for `CC(=O)Nc1cccc(O[C@@H]2c3ccccc3C[C@H]2N2CCC(N)C2)c1` (mixture of isomers) [Example 687, N-{3-[rac-trans-(1,2)-2-(3-aminopyrrolidin-1-yl)indan-1-yloxy]phenyl}acetamide], the IC50 is 1000 to 10000 nM.
Regarding `NS(=O)(=O)c1ccc(OC2c3ccccc3CC2N2CC[C@@H](N3CCCC3)C2)cc1` (mixture of isomers) [Example 463, 4-(rac-trans-(1,2)-(R)-2-[1,3′]Bipyrrolidinyl-1′-ylindan-1-yloxy)benzenesulfonamide], the IC50 was in the range of 1000 to 10000 nM.
Still for that read-out and setting: as for `CS(=O)(=O)c1ccc(O[C@H]2c3ccccc3C[C@@H]2CN2CCCC2)cc1` (racemic) [Example 274, 1-[rac-trans-(1,2)-1-(4-methanesulfonylphenoxy)indan-2-ylmethyl]pyrrolidine], the figure is 1000 to 10000 nM.
Regarding `CC(=O)Nc1cccc(O[C@H]2c3cc(Cl)cc(Cl)c3C[C@@H]2N2CCCC2)c1` (racemic) [Example 648, N-[3-(rac-trans-(1,2)-4,6-dichloro-2-pyrrolidin-1-ylindan-1-yloxy)phenyl]acetamide], the IC50 fell in the range of 1000 to 10000 nM.
For the compound `N[C@H]1CCCN([C@H]2CCc3ccccc3[C@@H]2Oc2cccc3ncccc23)C1` (racemic) [Example 193, (S)-1-[rac-trans-(1,2)-1-(quinolin-5-yloxy)-1,2,3,4-tetrahydronaphthalen-2-yl]piperidin-3-ylamine], the IC50 was in the range of 1000 to 10000 nM.
On to `N[C@@H]1CCCN([C@H]2CCc3ccccc3[C@@H]2Oc2cccc(F)c2)C1` (racemic) [Example 57, (R)-1-[rac-trans-(1,2)-1-(3-fluorophenoxy)-1,2,3,4-tetrahydronaphthalen-2-yl]piperidin-3-ylamine], for which the inhibition at 10 µM lay within 20 to 50%.

The record behind these values is patent US8822449B2, “Substituted aminoindanes and analogs thereof, and the pharmaceutical use thereof” (Sanofi, priority 2008, dated 2014).
